The values below come from patent US4499084A, “Ara-A Antiviral composition and method of administering the same” (priority 1983, dated 1985).

≈ marks a conversion by molar mass, not a printed value. Read-outs that look alike come from different tables or passages of the source. Bounds are passed on as bounds.

The test system of data set [1] is antiviral activity of ara-A. The experiment in a line: effect of benzocaine added to the medication on antiviral activity of ara-A. The note with it: benzocaine in the medication. From the text:
The medication of the present invention has been prepared and used both ways.

The subject of another data set is patient. As to the kind of experiment: effect of benzocaine in DMSO on the patient. The note with it: administered in DMSO. Format: in vivo.
Data set [2] relates to oral or genital herpes simplex virus disease. The note with it: cited from earlier work.
For a further data set, the system named is herpes simplex virus. Conditions: cited from earlier work.
Data set [3] deals with man. The experiment in a line: toxicity and side effects in man. Format: in vivo. Conditions: average 150 pound man; converted from oral LD50 in rats and mice. As for the experimental part: Regarding toxicity or other side effects on the patient, extensive pharmacology and toxicity studies ara-A have been carried out in animals and in man. […] This dose level indicates a low order of toxicity to a single parenteral dose. The acute oral LD50 in both rats and mice is greater than 5000 mg/kg. This amount would be equivalent to more than […] in an average 150 pound person. […] In the form used in the present invention and with treatment by topical application, it is highly unlikely that any toxic side effects of ara-A would be observed.

For the next data set, the system named is varicella-zoster virus. Conditions: in vitro and in vivo (animal models or man); cited from earlier work.
In the next data set the test system is cytomegalovirus. The note with it: in vitro and in vivo (animal models or man); cited from earlier work.
For a further data set, the system named is Epstein-Barr (E-B) virus. The note with it: in vitro and in vivo (animal models or man); cited from earlier work.
The conditions of data set [4]: cited from earlier work.
Another data set concerns DNA polymerase. The note with it: cited from earlier work.
The subject of data set [5] is man. Conditions: cited from earlier work.
A further data set has as its system DNA viruses. The note with it: in vitro and in vivo (animal models or man); cited from earlier work.
For another data set, the system named is vaccinia virus. The note with it: in vitro and in vivo (animal models or man); cited from earlier work.
In another data set the test system is mice. Conditions: cited from earlier work.
Data set [6] is classed as physicochemical. The text has this: There are no special procedures involved in the preparation of the antiviral composition of the present invention. The demineralized water and DMSO can be mixed and the ara-A (and benzocaine if used) dissolved in the DMSO and water solution. The ara-A can be added to the pure DMSO, and water added last. When water and DMSO are mixed, the solution becomes warm because there is a positive heat of solution. […] Ara-A can be recovered from the DMSO and water solution virtually 100 percent as unchanged ara-A.

A further data set deals with rats. The note with it: cited from earlier work.
A further data set can be described thus: solubility. The data set is classed as physicochemical. The note with it: organic solvent or mixture; DMSO solvent system; read-out: concentration achieved using DMSO as the solvent system. As for the experimental part: By using DMSO as the solvent system, it is possible to achieve a concentration of 10 mg/ml or greater. DMSO transports the ara-A directly into the virus infected cell where active viral replication is occurring. The drug interfers with viral DNA synthesis causing inhibition of viral maturation.
DMSO serves two purposes in enhancing the therapeutic action of ara-A. First, DMSO allows a concentration of ara-A that is more than 20 times greater than can be achieved with water alone. […] It is this percutaneous property of DMSO that is apparently responsible for the extraordinary effectiveness of this medication.

For data set [7], the system named is interstitial spaces and cell walls. The note with it: not told; cited from earlier work.
For data set [8], the system named is skin. The note with it: in vivo. The method, then: This rash, however, usually disappears shortly thereafter with no ill effects. Annals of the New York Academy of Sciences, […]. S. W. Jacob, E. E. Rosenhaum and D. C. Wood, Eds., Vol. 1 Dimethyl Sulfoxide 99, (marcel Depper, Inc., New York, N.Y. 1971); and Annals of the New York Academy of Sciences, Vol. 243 (1975). In the present invention DMSO is diluted to 70% with demineralized water before ara-A is added.

A further data set has as its system animals and humans. The note with it: cited from earlier work.
The subject of data set [9] is skin. The note with it: applied to the skin; cited from earlier work.
Data set [10] concerns DNA viruses, including herpes simplex. Conditions: combined with dimethyl sulfoxide (DMSO); cited from earlier work.

Consider `CCOC(=O)c1ccc(N)cc1` [benzocaine], for which, in [1], the “effect of benzocaine on antiviral activity of ara-A” value is reported as “does not impair the antiviral activity of ara-A”. The “deleterious effect of benzocaine on the patient” value in the data set on patient was “Nor does the benzocaine appear to have any deleterious affect on the patient”.

On to `O=CC[C@@H](O)[C@H](O)[C@H](O)CO` [2-deoxy-d-glucose], for which, in data set [2], the “success in combating oral or genital herpes simplex virus disease in a clinical setting” value (“success” below) was “none of these antiviral agents have been successful”. Further, in the data set on herpes simplex virus, the “destruction of herpes simplex virus in a laboratory setting” value (“destruction of herpes simplex virus” for short) was “will destroy the herpes simplex virus”.

Consider `Nc1ncnc2c1ncn2[C@@H]1O[C@H](CO)[C@@H](O)[C@@H]1O` [ara-A, adenine-9-beta-D-arabinofuranoside], for which, in the data set with man [3], the “amount equivalent to the acute oral LD50 in an average 150 pound person” value is reported as “more than 750 grams”. In the data set on varicella-zoster virus, the “activity against varicella-zoster virus” value is on record as “active”. Moreover, in the data set on cytomegalovirus, the activity against cytomegalovirus entry is given as “active”. In the data set with Epstein-Barr (E-B) virus, the “activity against Epstein-Barr virus” value is “active”. Further, the “success” value in data set [2] is “none of these antiviral agents have been successful”. Further, the “effectiveness against oral or genital herpes” value in data set [2] (ointment form (ocular herpes) or infusion for 12 to 24 hours (herpes encephalitis)) was “Neither of these treatments are effective against oral or genital herpes”. Also, the solubility in water in [4] (25C) is 450 µg/mL (≈ 1.68 mM); in [4], “highly insoluble in water”. The “inhibition of DNA polymerase” value in the data set on DNA polymerase was “inhibits the enzyme DNA polymerase”. Moreover, the “side effects of massive acute overdosage” value with man [5] (intravenous form, massive acute overdosage) is reported as “without any serious side effect”. The “redness and irritation after topical application” value in the data set on man [5] (topical application, some cases) was “redness and slight irritation”. The “toxicity through topical application” value in the data set on man [5] (topical application) is recorded as “not possible to demonstrate toxicity through topical application”. Further, the “activity against a broad spectrum of DNA viruses” value with DNA viruses is listed as “active”. Besides, the “antiviral activity against the herpes simplex virus” value in the data set with herpes simplex virus is “effective antiviral agent against the herpes simplex virus”. Further, the “destruction of herpes simplex virus” value with herpes simplex virus is recorded as “will destroy the herpes simplex virus”. The “activity against vaccinia virus” value in the data set with vaccinia virus is listed as “active”. The “acute oral LD50” value with mice and in the data set with rats was “greater than 5000 mg/kg” throughout. In addition, in [6] (from the DMSO and water solution), the “recovery of unchanged ara-A” value is given as roughly 100%. Besides, the “chemical reaction between ara-A and DMSO” value in data set [6] (under the conditions of preparation) is “no chemical reaction between ara-A and DMSO”. In addition, in “solubility”, the solubility is no less than 10000 µg/mL.

For the compound `NC(=O)c1ncn([C@@H]2O[C@H](CO)[C@@H](O)[C@H]2O)n1` [ribavirin], in data set [2], the “success” value is on record as “none of these antiviral agents have been successful”. Moreover, the “destruction of herpes simplex virus” value in the data set on herpes simplex virus was “will destroy the herpes simplex virus”.

Turning to `Nc1nc2c(ncn2COCCO)c(=O)[nH]1` [acyclovir], in [2], the “success” value is reported as “none of these antiviral agents have been successful”. Also, in the data set with herpes simplex virus, the “destruction of herpes simplex virus” value was “will destroy the herpes simplex virus”.

For `C[S+](C)[O-]` [DMSO, dimethyl sulfoxide], the “permeation of interstitial spaces and cell walls” value in data set [7] is “unique ability of permeating the interstitial spaces and cell walls”. In addition, the “skin irritation at 70% DMSO” value in the data set on skin [8] is listed as “usually nonirritating to normal skin”. For the same compound, in the data set on animals and humans, the “toxicity of DMSO” value was “essentially nontoxic”. In the data set with skin [9], the “skin reaction to undiluted DMSO” value was “sometimes may cause an itching or burning sensation with redness or a rash”.

Regarding `O=C(O)CP(=O)(O)O` [phosphonacetic acid], the “success” value in data set [2] is “none of these antiviral agents have been successful”. The “destruction of herpes simplex virus” value with herpes simplex virus was “will destroy the herpes simplex virus”.

Consider `O=c1[nH]c(=O)n([C@H]2C[C@H](O)[C@@H](CO)O2)cc1I` [IdU, 5-iododexyuridine], for which, in [10], the “clearing of skin lesions” value is recorded as “purportedly cleared up skin lesions” and the prevention of recurrence result is on record as “prevent recurrence”.
